In US12331312B2, “Deterministic culturing of single cells” (Purdue Research Foundation, priority 2020, dated 2025):

Test system: MCF7 tumors
Experiment: Paclitaxel treatment of single-cell-derived MCF7 tumors on collagen islands; apoptosis counted by Hoechst nuclear morphology
Assay type: cell-based
Protocol: Hoechst staining was used to visualize cells in the tumor using fluorescence microscopy (FIG. 4). Specifically, cells were washed in PBS and fixed in 4% paraformaldehyde before staining with 1:1000 PBS diluted solution of 20 mM Hoechst 33342 (Thermo Fischer Scientific, Waltham, MA) for 10 minutes. After washing once with PBS, tumors were imaged with a ZEISS LSM 800 confocal microscope with an excitation laser of 401 nm wavelength and with 10× magnification lens (EC Plan-Neofluar® 10×/0.30 M27). Bright-field and fluorescence images were also obtained using NIKON ECLIPSE® 80i upright fluorescence microscope, which were used to analyze the morphology of the tumors with ImageJ. […]
For each tumor, dead and live nuclei at every alternate plane of the z-stack were manually counted using Fiji cell counting software. […]
Since each island comprises a relatively small amount of collagen (e.g. as opposed to an entire well of a 96-well plate), excess dye that inadvertently diffuses into the collagen can be washed easily to reduce any background fluorescence signal. Live and dead cells (the latter indicated by smaller or fragmented nuclei with intense staining due to DNA condensation) from individual planes of z-stack confocal images of each tumor were manually counted according to a procedure described by Crowley et al. (see, e.g., Crowley et al., Cold Spring Harb. Protoc. pdb.prot087205 2016). […]

## CC(=O)O[C@H]1C(=O)[C@@]2(C)[C@H]([C@H](OC(=O)c3ccccc3)[C@]3(O)C[C@H](OC(=O)[C@H](O)[C@@H](NC(=O)c4ccccc4)c4ccccc4)C(C)=C1C3(C)C)[C@]1(OC(C)=O)CO[C@@H]1C[C@@H]2O [Paclitaxel]
13-day old MCF7 tumors, Paclitaxel 5 nM, 20 nM and 100 nM for 24 hours, Hoechst 33342 nuclear morphology
  average cell death (percentage of apoptotic cells): increased with drug concentration
Each drug concentration (5, 20, 100 nM), 24 hours
  variation in the response of individual tumors: significant variation in the response of individual tumors for each drug concentration
